For 22 compounds, IC50 results are on record in patent publication US20110124626A1, “BENZAZEPINE DERIVATIVES AND THEIR USE AS HISTAMINE H3 ANTAGONISTS” (TAKEDA PHARMACEUTICAL COMPANY LIMITED, priority 2008, published 2011).

The target of test [1] is T1, human H3 receptor (Homo sapiens, UniProt Q9Y5N1).
T1 construct: expressed in transfected cells
As to the kind of experiment: In vitro H3 binding assay (3H-N-α-methyl-histamine competition binding). The following applies: membranes of CHO-K1 cells expressing human H3 receptor; 2 nM 3H-NαMH; read-out: hH3 binding IC50. How it is done:
The ability of compounds to bind to the H3 receptor was determined by measuring the reduction in tritiated N-α-methyl-histamine (^3H—NαMH) binding in a competition binding assay. Changes in the levels of bound radio-label were monitored by scintillation counting with a Trilux Microbeta (Perkin Elmer).
Membranes were prepared from CHO-K1 cells stably expressing human H3 receptor; routinely grown as monolayers in Ham's F12 medium (Invitrogen) supplemented with 10% Foetal Clone 111 (Hyclone), 500 μg/ml G418 (Invitrogen), 5 μg/ml blasticidine S (Invivogen) and […] Gentamicin (Sigma) in 5% CO2 at 37° C. Cells were grown to 80-95% confluency, rinsed once with 1×PBS (Invitrogen) and detached by incubating with 1×PBS containing 0.02% EDTA (Sigma) for 10 minutes at room temperature. Cells were collected by centrifugation at 900×g, 4° C. for 10 minutes. Cells were rinsed once with 1×PBS and re-suspended in ice cold homogenisation buffer (50 mM Tris-HCl (pH 7.4), 2.5 mM EDTA, 5 mM MgCl2, 200 mM Sucrose) at 1×10^7 cells/ml and kept on ice. Cells were homogenised on ice and debris removed by centrifugation at 500×g, 4° C. for 5 minutes. The resulting supernatant was centrifuged at 75,600×g, 4° C. for 60 minutes. Membranes were suspended in homogenisation buffer, protein concentration was determined (BCA Protein Assay kit (Pierce)), diluted to 2.2 mg/ml, dispensed into 1 ml aliquots and stored at −80° C.
Membranes were thawed on ice, sonicated with 4 cycles of 20 pulses (50% amplitude, 0.5 pulse) (UP200S Hielscher) on ice, diluted in assay buffer (50 mM Tris-HCl (pH7.4), 5 mM MgCl2) to 62.5 μg/ml. Compound was serially diluted in DMSO before being diluted 1:10 with assay buffer. 5 μg of membrane in 80 μl of assay buffer was added per well of a 96 well polystyrene plate (Corning). […] of compound was added per well. The assay was initiated by the addition of 10 μl of 20 nM ^3H—NαMH per well and incubated for one hour at room temperature with shaking. Total binding was determined in the presence of 1% DMSO and non-specific binding was determined by the inclusion of 1 μM R-α-methyl-histamine (RαMH). Incubations were then filtered through filtermat A (Perkin Elmer) and washed three times with assay buffer. Filtermats were dried at 42° C. for two hours, scintillant added and the level of bound radioactivity determined.
IC50 values for compounds were determined from seven point log scale dose-response studies and represent the concentration of compound required to inhibit 50% of the specific binding of 2 nM ^3H—NαMH (difference between total and non-specific binding). Curves were generated using the average of duplicate wells for each data point and analyzed using nonlinear regression of sigmoidal dose response (variable slope).

The target of test [2] is T1, human H3 receptor. The test can be described thus: In vitro H3 functional assay (cAMP response element driven luciferase reporter). It is filed as cell-based. The following applies: CHO(dhfr+)-cre-luc cells expressing human H3 receptor; RαMH 10 nM, forskolin 1 μM; read-out: hH3 functional IC50. As for the experimental part:
The functional activity of compounds at the H3 receptor was determined by measuring changes in the level of intracellular cAMP using a cAMP response element driven luciferase reporter assay. The changes in luciferase expression were monitored by a luminescence plate reader, Analyst HT (MDS Analytical). Increases in intracellular cAMP were readily detected upon activation of protein kinase A by forskolin (Sigma) and suppression of this response observed with the application of the H3 receptor agonist RαMH (Sigma).
CHO(dhfr^+)-cre-luc cells stably expressing human H3 receptor were routinely grown as monolayers in Minimal Essential Medium α (MEMα) (Invitrogen) supplemented with 10% dialysed FBS (Hyclone), in 5% CO2 at 37° C. 48 hours prior to assay, cells were seeded in clear-base white walled 384-well plates (Corning) at a density of 5000 cells/well. On the day of assay, growth media was removed and replaced with […] of assay buffer (MEMα, 5 mg/ml fatty acid free BSA (Sigma)) per well. Cells were then incubated for 30 minutes at 37° C., 5% CO2. Compound was serially diluted in DMSO before being diluted 1:10 with assay buffer. 2.5 of compound diluted in assay buffer was added and cells incubated for 5 minutes at 37° C., 5% CO2. 2.5 μl of each reagent was then added in the following order: RαMH (10 nM), isobutylmethylxanthine (1-methyl-3-(2-methylpropyl)-7H-purine-2,6-dione; IBMX) (500 μM) (Sigma) and forskolin (1 μM). Cells were then incubated for 90 minutes at 37° C., 5% CO2, followed by 30 minutes at room temperature. At the end of incubation 25 μl of Steadylite reagent (Perkin Elmer) was added, plates were sealed and placed on a shaker for 5 minutes. The level of light output to determine the level of luciferase expression was then measured.
IC50 values for compounds were determined from ten point half log scale dose-response studies and represent the concentration of compound required to […] 50% inhibition of forskolin stimulated cells in the presence of RαMH alone. Curves were generated using the average of duplicate wells for each data point and analyzed using nonlinear regression of four parameter dose response.
In general terms: Reporter assays use an easily measured gene product as a stand-in for the process of interest.

T1 sequence (Q9Y5N1 whole entry): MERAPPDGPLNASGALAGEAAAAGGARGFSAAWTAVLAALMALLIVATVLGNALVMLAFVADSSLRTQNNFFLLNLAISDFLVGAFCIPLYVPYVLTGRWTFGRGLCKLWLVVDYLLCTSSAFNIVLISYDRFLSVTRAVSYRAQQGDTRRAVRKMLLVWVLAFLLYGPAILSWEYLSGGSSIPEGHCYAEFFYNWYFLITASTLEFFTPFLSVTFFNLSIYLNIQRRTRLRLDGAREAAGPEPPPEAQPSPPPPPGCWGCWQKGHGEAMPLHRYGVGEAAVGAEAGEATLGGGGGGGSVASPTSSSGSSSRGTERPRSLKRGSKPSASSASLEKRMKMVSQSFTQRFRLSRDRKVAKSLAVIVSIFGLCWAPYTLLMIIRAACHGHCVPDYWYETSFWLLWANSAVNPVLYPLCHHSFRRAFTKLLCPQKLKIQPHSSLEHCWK

As to `Cc1noc(C)c1C(=O)NCc1ccc2c(c1)CCN(C1CCC1)CC2` [Example 263, N-[(3-cyclobutyl-2,3,4,5-tetrahydro-1H-3-benzazepin-7-yl)methyl]-3,5-dimethyl-1,2-oxazole-4-carboxamide], the IC50 (as a rule, the concentration that inhibits the measured activity by half) amounted to 18 nM in test [1] and 6 nM in test [2].
The corresponding values for `CNC(=O)c1ccc(CNC(=O)c2ccc3c(c2)CCN(C2CCC2)CC3)cc1` [Example 53, 3-Cyclobutyl-N-(4-(methylcarbamoyl)benzyl)-2,3,4,5-tetrahydro-1H-benzo[d]azepine-7-carboxamide] are 51 nM and 6 nM.
The corresponding values for `O=C(NCc1cccnc1)c1ccc2c(c1)CCN(C1CCCC1)CC2` [Example 20, 3-Cyclopentyl-N-(pyridin-3-ylmethyl)-2,3,4,5-tetrahydro-1H-benzo[d]azepine-7-carboxamide] are 11 nM and 3 nM.
The corresponding values for `O=C(NCc1ccccc1)c1ccc2c(c1)CCN(C1CCC1)CC2` [Example 23, N-Benzyl-3-cyclobutyl-2,3,4,5-tetrahydro-1H-benzo[d]azepine-7-carboxamide] are 11 nM and 2 nM.
Turning to `O=C(NCc1cccnc1)c1ccc2c(c1)CCN(C1CCC1)CC2` [Example 42, 3-Cyclobutyl-N-(pyridin-3-ylmethyl)-2,3,4,5-tetrahydro-1H-benzo[d]azepine-7-carboxamide], the IC50 in test [1] was found to be 9 nM; in test [2], 30 nM.
The corresponding values for `O=C(NC1CCCC1)c1ccc2c(c1)CCN(C1CCC1)CC2` [Example 29, 3-Cyclobutyl-N-cyclopentyl-2,3,4,5-tetrahydro-1H-benzo[d]azepine-7-carboxamide] are 13 nM and 8 nM.
On to `Cn1cccc1CNC(=O)c1ccc2c(c1)CCN(C1CCC1)CC2` [Example 111, 3-Cyclobutyl-N-((1-methyl-1H-pyrrol-2-yl)methyl)-2,3,4,5-tetrahydro-1H-benzo[d]azepine-7-carboxamide], for which the IC50 in test [1] and in test [2] was 7 nM each time.
Take `CC(=O)N1CCC(C(O)Cc2ccc3c(c2)CCN(C2CCC2)CC3)CC1` (racemic) [Example 146, 1-(4-(2-(3-cyclobutyl-2,3,4,5-tetrahydro-1H-benzo[d]azepin-7-yl)-1-hydroxyethyl)piperidin-1-yl)ethanone]: the IC50 in test [1] and in test [2] was 10 nM each time.
On to `CCC(=O)N1CCC[C@H](CC(O)Cc2ccc3c(c2)CCN(C2CCC2)CC3)C1` (single isomer, unassigned) [Example 251], for which the IC50 in test [1] worked out at 11 nM; in test [2], 6 nM.
The corresponding values for `O=C(NCc1ccc2c(c1)CCN(C1CCC1)CC2)N1CCCC1` [Example 194, N-((3-cyclobutyl-2,3,4,5-tetrahydro-1H-benzo[d]azepin-7-yl)methyl)pyrrolidine-1-carboxamide] are 26 nM and 7 nM.
The corresponding values for `O=C(NCc1ccc2c(c1)CCN(C1CCC1)CC2)c1cnc(N2CCCC2)nc1` [Example 256, N-((3-cyclobutyl-2,3,4,5-tetrahydro-1H-benzo[d]azepin-7-yl)methyl)-2-(pyrrolidin-1-yl)pyrimidine-5-carboxamide] are 0.3 nM and 3 nM.
On the same counts, the results for `O=C(NCC1CCS(=O)(=O)C1)c1ccc2c(c1)CCN(C1CCC1)CC2` (centres unmarked) [Example 171, 3-Cyclobutyl-2,3,4,5-tetrahydro-1H-benzo[d]azepine-7-carboxylic acid (1,1-dioxo-tetrahydro-1lambda*6*-thiophen-3-ylmethyl)-amide] are 14 nM and 4 nM.
Take `O=C(NCc1ccsc1)c1ccc2c(c1)CCN(C1CCC1)CC2` [Example 88, 3-Cyclobutyl-N-(thiophen-3-ylmethyl)-2,3,4,5-tetrahydro-1H-benzo[d]azepine-7-carboxamide]: the IC50 in test [1] was 5 nM; in test [2] it was 2 nM.
For `C[C@@H]1CCCN1C(=O)NCc1ccc2c(c1)CCN(C1CCC1)CC2` [Example 265, (R)—N-((3-cyclobutyl-2,3,4,5-tetrahydro-1H-benzo[d]azepin-7-yl)methyl)-2-methylpyrrolidine-1-carboxamide], the results for the half-maximal inhibitory concentration (IC50) in test [1] and in test [2] were 6 nM and 4 nM, respectively.
The corresponding values for `Cn1nc(CNC(=O)c2ccc3c(c2)CCN(C2CCC2)CC3)cc1-c1ccccc1` [Example 108, 3-Cyclobutyl-N-((1-methyl-5-phenyl-1H-pyrazol-3-yl)methyl)-2,3,4,5-tetrahydro-1H-benzo[d]azepine-7-carboxamide] are 1 nM and 4 nM.
As to `NC(=O)c1ccc2c(c1)CCN(C1CCC1)CC2` [Example 167, 3-cyclobutyl-2,3,4,5-tetrahydro-1H-benzo[d]azepine-7-carboxamide], the figures for the IC50 in test [1] and in test [2] were 22 nM and 71 nM, respectively.
On the same counts, the results for `O=C(NCc1nc2ccccc2s1)c1ccc2c(c1)CCN(C1CCC1)CC2` [Example 78, N-(Benzo[d]thiazol-2-ylmethyl)-3-cyclobutyl-2,3,4,5-tetrahydro-1H-benzo[d]azepine-7-carboxamide] are 4 nM and 2 nM.
On the same counts, the results for `Cn1cncc1CNC(=O)c1ccc2c(c1)CCN(C1CCC1)CC2` [Example 114, 3-Cyclobutyl-N-((1-methyl-1H-imidazol-5-yl)methyl)-2,3,4,5-tetrahydro-1H-benzo[d]azepine-7-carboxamide] are 12 nM and 19 nM.
Take `Nc1ncccc1CNC(=O)c1ccc2c(c1)CCN(C1CCC1)CC2` [Example 44, N-((2-Aminopyridin-3-yl)methyl)-3-cyclobutyl-2,3,4,5-tetrahydro-1H-benzo[d]azepine-7-carboxamide]: the figures for the IC50 in test [1] and in test [2] were 14 nM and 3 nM, respectively.
The corresponding values for `CCC(=O)N1CCC(C)(C(O)Cc2ccc3c(c2)CCN(C2CCC2)CC3)CC1` (single isomer, unassigned) [Example 257, 1-{4-[2-(3-cyclobutyl-2,3,4,5-tetrahydro-1H-3-benzazepin-7-yl)-1-hydroxyethyl]-4-methylpiperidin-1-yl}propan-1-one] are 25 nM and 7 nM.
On the same counts, the results for `O=C(NCc1cccc(Cn2cccn2)c1)c1ccc2c(c1)CCN(C1CCC1)CC2` [Example 70, N-(3-((1H-Pyrazol-1-yl)methyl)benzyl)-3-cyclobutyl-2,3,4,5-tetrahydro-1H-benzo[d]azepine-7-carboxamide] are 5 nM and 3 nM.
The corresponding values for `CC(C)(O)CC(=O)NCc1ccc2c(c1)CCN(C1CCC1)CC2` [Example 216, N-((3-cyclobutyl-2,3,4,5-tetrahydro-1H-benzo[d]azepin-7-yl)methyl)-3-hydroxy-3-methylbutanamide] are 41 nM and 20 nM.
